In ChEMBL document CHEMBL1135123, “Discovery of L-791,943: a potent, selective, non emetic and orally active phosphodiesterase-4 inhibitor” (Bioorg Med Chem Lett, 2002):

How the values were obtained:
[1] = molecular target: T1, 3',5'-cyclic-AMP phosphodiesterase 4A (Homo sapiens, UniProt P27815); test: Inhibitory concentration of compound against LPS- induced TNF-alpha production in whole human blood assay; format: functional, tissue-based
Target sequence in this assay (P27815 whole entry, the tested form may be a part, canonical isoform): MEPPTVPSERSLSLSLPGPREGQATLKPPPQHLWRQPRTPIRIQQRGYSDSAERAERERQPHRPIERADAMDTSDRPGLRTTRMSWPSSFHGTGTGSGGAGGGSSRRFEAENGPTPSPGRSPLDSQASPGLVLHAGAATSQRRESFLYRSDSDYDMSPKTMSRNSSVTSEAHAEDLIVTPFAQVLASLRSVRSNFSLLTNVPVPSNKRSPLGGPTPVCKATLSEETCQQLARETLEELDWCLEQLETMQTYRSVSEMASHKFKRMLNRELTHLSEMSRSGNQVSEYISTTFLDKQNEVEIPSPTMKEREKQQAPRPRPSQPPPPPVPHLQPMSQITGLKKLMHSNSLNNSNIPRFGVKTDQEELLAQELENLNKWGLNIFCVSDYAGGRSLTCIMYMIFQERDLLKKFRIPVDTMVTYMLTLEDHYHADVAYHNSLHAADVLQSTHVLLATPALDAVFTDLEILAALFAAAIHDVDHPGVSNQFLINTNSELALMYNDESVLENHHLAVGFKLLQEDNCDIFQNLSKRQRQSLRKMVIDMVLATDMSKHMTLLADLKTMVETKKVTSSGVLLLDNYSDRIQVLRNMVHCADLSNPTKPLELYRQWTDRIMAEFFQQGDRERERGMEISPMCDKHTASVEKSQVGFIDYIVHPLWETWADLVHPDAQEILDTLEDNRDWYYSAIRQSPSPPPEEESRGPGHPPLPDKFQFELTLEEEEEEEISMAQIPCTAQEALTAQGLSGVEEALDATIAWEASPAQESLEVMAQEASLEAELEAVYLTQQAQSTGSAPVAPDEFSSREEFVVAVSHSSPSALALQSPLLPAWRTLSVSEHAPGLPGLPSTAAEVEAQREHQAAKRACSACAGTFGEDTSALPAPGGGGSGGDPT

[2] = molecular target: T1, 3',5'-cyclic-AMP phosphodiesterase 4A; test: Inhibitory concentration against human PDE4A isoform using a construct representing the common region of spliced variants expressed as GST-fusion protein in Sf9 cells
Target sequence in this assay (P27815 whole entry, looked up, stated change not applied, the tested form may be a part, canonical isoform): as the sequence (P27815 whole entry, the tested form may be a part, canonical isoform) above

[3] = Bioavailability; format: ADME, organism-based; settings: eutheria, in vivo
[4] = Half-life period was determined; format: ADME
Mustela putorius furo = species on record: Mustela putorius furo; test: Emetic effect in ferrets; format: functional
Ovis aries [5] = test: Ascaris-induced late phase bronchoconstriction in conscious sheep administered intravenously at 2 mg/kg; format: functional; settings: route intravenous
Cavia porcellus = test: Ovalbumin induced bronchoconstriction in conscious guinea pig pretreated with 1 mg/kg intraperitoneal dose for 4 hr; format: functional
[6] = Ascaris-induced bronchoconstriction in anesthetized squirrel monkey pretreated with 3 mg/kg peroral dose for 4 hr; format: functional; settings: route oral
Ovis aries [7] = test: Ascaris-induced early phase bronchoconstriction in conscious sheep administered intravenously at 2 mg/kg; format: functional; settings: route intravenous
[8] = Half life of compound was determined in squirrel monkey; format: ADME; settings: in vivo
[9] = Half life of compound was determined in rat; format: ADME, organism-based; settings: in vivo
[10] = Ascaris-induced bronchoconstriction in anesthetized squirrel monkey pretreated with 5 mg/kg intravenously for 30 min; format: functional; settings: route intravenous

| SMILES | IC50 [1] | IC50 [2] | other results |
| --- | --- | --- | --- |
| CCNC(=O)OCc1ccc(C(Cc2cc[n+]([O-])cc2)c2ccc(OC(F)F)c(OC(F)F)c2)cc1 (stereo not given) | 410 nM | 4.6 nM | – |
| [O-][n+]1ccc(CC(c2ccc(C(O)(C(F)(F)F)C(F)(F)F)cc2)c2ccc(OC(F)F)c(OC(F)F)c2)cc1 (stereo not given) | 670 nM | 4.2 nM | Dose (Mustela putorius furo): >3 mg/kg; Efficacy (Ovis aries [5]): 95%; Efficacy (Cavia porcellus): 58%; Efficacy [6]: 96%; Efficacy (Ovis aries [7]): 85%; half-life [8]: 48 h; half-life [9]: > 24 h |
| CC(O)c1ccc(C(Cc2cc[n+]([O-])cc2)c2ccc(OC(F)F)c(OC(F)F)c2)cc1 (stereo not given) | 510 nM | 45 nM | – |
| Cc1ccccc1C(=O)NS(=O)(=O)c1ccc(C(Cc2cc[n+]([O-])cc2)c2ccc(OC(F)F)c(OC(F)F)c2)cc1 (stereo not given) | 75000 nM | 3.1 nM | – |
| CC(C)(O)c1ccc(C(Cc2cc[n+]([O-])cc2)c2ccc(OC(F)F)c(OC(F)F)c2)cc1 (stereo not given) | 360 nM | 9.6 nM | bioavailability [3]: 55%; half-life [4]: 1 h |
| O=C(O)c1ccc(C(Cc2cc[n+]([O-])cc2)c2ccc(OC(F)F)c(OC(F)F)c2)cc1 (stereo not given) | 77000 nM | 24 nM | – |
| CN(C)C(=O)c1ccc(C(Cc2cc[n+]([O-])cc2)c2ccc(OC(F)F)c(OC(F)F)c2)cc1 (stereo not given) | 1000 nM | 8.6 nM | – |
| CC(C)(C(=O)O)c1cccc(-c2ccc(C(Cc3cc[n+]([O-])cc3)c3ccc(OC(F)F)c(OC(F)F)c3)cc2)c1 (stereo not given) | 6500 nM | 2.2 nM | – |
| Cc1ccc(C(=O)c2ccc(C(Cc3cc[n+]([O-])cc3)c3ccc(OC(F)F)c(OC(F)F)c3)cc2)nc1 (stereo not given) | 890 nM | 7.3 nM | – |
| [O-][n+]1ccc(CC(c2ccc(COc3ccc(F)cc3)cc2)c2ccc(OC(F)F)c(OC(F)F)c2)cc1 (stereo not given) | 1900 nM | 0.5 nM | – |
| O=C(O)Cc1ccc(C(Cc2cc[n+]([O-])cc2)c2ccc(OC(F)F)c(OC(F)F)c2)cc1 (stereo not given) | 58000 nM | 53 nM | – |

Further lines, with some results ahead:

| IC50 [1] | IC50 [2] | SMILES | other results |
| --- | --- | --- | --- |
| 380 nM | 7.5 nM | [O-][n+]1ccc(CC(c2ccc(C3(O)CCC3)cc2)c2ccc(OC(F)F)c(OC(F)F)c2)cc1 (stereo not given) | bioavailability [3]: 100%; half-life [4]: 2 h |
| – | 772 nM | Clc1ccc(C(Cc2ccncc2)c2ccc3c(c2)OCCO3)cc1 (stereo not given) | – |
| 98000 nM | 110 nM | COc1ccc(C(Cc2ccncc2)c2ccc(Cl)cc2)c(F)c1OC1CCCC1 (stereo not given) | – |
| 470 nM | 44 nM | [O-][n+]1ccc(CC(c2ccc(CO)cc2)c2ccc(OC(F)F)c(OC(F)F)c2)cc1 (stereo not given) | – |
| 4500 nM | 11 nM | FC(F)Oc1ccc(C(Cc2ccncc2)c2ccc(Cl)cc2)cc1OC(F)F (stereo not given) | – |
| 12000 nM | 2.8 nM | COc1ccc(C(Cc2ccncc2)c2ccc(Cl)cc2)cc1OC1CCCC1 (stereo not given) | – |
| – | > 1000 nM | Clc1ccc(C(Cc2ccncc2)c2ccc3c(c2)OCO3)cc1 (stereo not given) | – |
| 8700 nM | 13 nM | FC(F)Oc1ccc(C(Cc2ccncc2)c2ccc(Cl)cc2)cc1OC1CCCC1 (stereo not given) | – |
| 1700 nM | 16 nM | [O-][n+]1ccc(CC(c2ccc(C3(O)CC3)cc2)c2ccc(OC(F)F)c(OC(F)F)c2)cc1 (stereo not given) | – |
| 16000 nM | 4.3 nM | COc1ccc([C@H](Cc2ccncc2)c2ccccc2)cc1OC1CCCC1 [CDP840] | Dose (Mustela putorius furo): 30 mg/kg; Efficacy [10]: 64%; half-life [8]: < 1 h; half-life [9]: < 0.5 h |
